Results on two molecules are retold here after patent publication US20170190705A1, “Compositions and Methods for Inhibiting BMP” (THE BRIGHAM AND WOMAN'S HOSPITAL, INC., priority 2014, published 2017).

What all share (assay type): biochemical
Experiment [1] concerns the target TRKB (Homo sapiens, UniProt Q16620). The experiment in a line: Kinome profiling TRKB. The conditions noted are these: read-out: Inhibitory activity TRKB; for inhibition at 0.1 µM: 100 nM. On the procedure: (§1) . The kinome-wide selectivity was determined following the methods previously reported by Mohedas et al., ACS Chem Biol 2013, 8, 1291-1302 and Sanvitale et al., PLoS One 2013, 8, e62721.

Experiment [2] has as its target ERBB4 (Homo sapiens, UniProt Q15303). The experiment in a line: Kinome profiling ERBB4. The conditions noted are these: read-out: Inhibitory activity ERBB4; for inhibition at 0.1 µM: 100 nM. On the procedure: as §1
The target of experiment [3] is RSK2 (Homo sapiens, UniProt P51812). Put plainly: Kinome profiling RSK2. The conditions noted are these: read-out: Inhibitory activity RSK2; for inhibition at 0.1 µM: 100 nM. On the procedure: as §1
In experiment [4] the target is T1, EPHB4 (Homo sapiens, UniProt P54760).
T1 sequence (P54760 16-987): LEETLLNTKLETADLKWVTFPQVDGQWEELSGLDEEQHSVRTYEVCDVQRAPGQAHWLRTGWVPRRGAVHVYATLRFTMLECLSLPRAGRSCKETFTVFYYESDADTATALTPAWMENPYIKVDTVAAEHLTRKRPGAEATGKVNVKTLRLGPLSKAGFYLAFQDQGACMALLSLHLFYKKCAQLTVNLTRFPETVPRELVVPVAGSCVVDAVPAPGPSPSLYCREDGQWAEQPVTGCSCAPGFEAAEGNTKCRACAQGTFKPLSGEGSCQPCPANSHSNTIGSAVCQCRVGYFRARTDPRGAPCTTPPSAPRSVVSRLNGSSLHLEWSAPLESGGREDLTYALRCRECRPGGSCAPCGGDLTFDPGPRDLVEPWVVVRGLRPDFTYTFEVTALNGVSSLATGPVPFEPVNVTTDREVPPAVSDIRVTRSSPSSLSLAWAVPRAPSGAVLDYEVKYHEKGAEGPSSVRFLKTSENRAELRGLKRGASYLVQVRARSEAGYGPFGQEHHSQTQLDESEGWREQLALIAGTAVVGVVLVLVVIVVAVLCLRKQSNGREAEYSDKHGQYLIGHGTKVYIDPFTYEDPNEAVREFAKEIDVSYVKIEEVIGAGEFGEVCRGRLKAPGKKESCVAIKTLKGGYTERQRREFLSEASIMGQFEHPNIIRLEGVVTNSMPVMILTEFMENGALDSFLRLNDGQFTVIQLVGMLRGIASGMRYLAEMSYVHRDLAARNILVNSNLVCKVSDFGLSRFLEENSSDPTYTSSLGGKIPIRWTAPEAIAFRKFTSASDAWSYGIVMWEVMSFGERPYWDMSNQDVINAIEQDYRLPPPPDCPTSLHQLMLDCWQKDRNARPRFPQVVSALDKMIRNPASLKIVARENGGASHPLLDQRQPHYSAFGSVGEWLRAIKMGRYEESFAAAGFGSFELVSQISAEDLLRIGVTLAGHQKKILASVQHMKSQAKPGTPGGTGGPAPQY
The experiment in a line: Kinome profiling EPHB4. The conditions noted are these: read-out: Inhibitory activity EPHB4; for inhibition at 0.1 µM: 100 nM. On the procedure:
as §1

Experiment [5] concerns the target AURORA-B (Homo sapiens, UniProt Q96GD4). Put plainly: Kinome profiling AURORA-B. Conditions: read-out: Inhibitory activity AURORA-B; for inhibition at 0.1 µM: 100 nM. On the procedure:
as §1

Experiment [6] deals with T2, MER (Homo sapiens, UniProt Q12866).
T2 sequence (Q12866 21-999): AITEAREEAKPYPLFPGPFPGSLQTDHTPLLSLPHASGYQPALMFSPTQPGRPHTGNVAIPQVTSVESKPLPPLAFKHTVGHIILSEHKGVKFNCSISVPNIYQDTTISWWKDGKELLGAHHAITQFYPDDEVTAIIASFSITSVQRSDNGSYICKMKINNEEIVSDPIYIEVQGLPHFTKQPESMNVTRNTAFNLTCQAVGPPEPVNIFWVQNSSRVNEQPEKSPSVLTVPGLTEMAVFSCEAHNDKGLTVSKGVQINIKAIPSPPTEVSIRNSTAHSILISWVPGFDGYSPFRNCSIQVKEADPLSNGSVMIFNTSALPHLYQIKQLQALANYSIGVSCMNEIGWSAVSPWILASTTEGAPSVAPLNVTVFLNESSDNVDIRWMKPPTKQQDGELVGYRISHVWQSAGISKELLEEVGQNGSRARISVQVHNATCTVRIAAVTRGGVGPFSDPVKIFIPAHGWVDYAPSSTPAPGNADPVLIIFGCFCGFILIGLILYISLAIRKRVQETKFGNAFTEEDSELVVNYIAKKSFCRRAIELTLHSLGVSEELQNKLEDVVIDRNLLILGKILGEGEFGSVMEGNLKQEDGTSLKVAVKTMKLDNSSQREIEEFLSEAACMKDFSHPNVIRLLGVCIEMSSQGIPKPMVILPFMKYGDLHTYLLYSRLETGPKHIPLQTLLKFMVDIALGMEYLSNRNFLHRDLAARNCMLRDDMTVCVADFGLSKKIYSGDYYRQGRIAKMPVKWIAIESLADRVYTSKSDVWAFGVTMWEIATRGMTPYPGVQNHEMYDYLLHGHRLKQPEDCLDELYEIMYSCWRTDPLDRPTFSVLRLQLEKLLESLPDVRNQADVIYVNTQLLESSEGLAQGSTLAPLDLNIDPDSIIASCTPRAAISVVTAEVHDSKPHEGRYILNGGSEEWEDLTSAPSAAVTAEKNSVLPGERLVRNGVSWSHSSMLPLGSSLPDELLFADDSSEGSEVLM
The experiment in a line: Kinome profiling MER. The conditions noted are these: read-out: Inhibitory activity MER; for inhibition at 0.1 µM: 100 nM. On the procedure:
as §1

Experiment [7] concerns the target JAK2 (Homo sapiens, UniProt O60674). The experiment in a line: Kinome profiling JAK2. Conditions: read-out: Inhibitory activity JAK2; for inhibition at 0.1 µM: 100 nM. On the procedure: as §1

Sequence of RSK2 (P51812 whole entry): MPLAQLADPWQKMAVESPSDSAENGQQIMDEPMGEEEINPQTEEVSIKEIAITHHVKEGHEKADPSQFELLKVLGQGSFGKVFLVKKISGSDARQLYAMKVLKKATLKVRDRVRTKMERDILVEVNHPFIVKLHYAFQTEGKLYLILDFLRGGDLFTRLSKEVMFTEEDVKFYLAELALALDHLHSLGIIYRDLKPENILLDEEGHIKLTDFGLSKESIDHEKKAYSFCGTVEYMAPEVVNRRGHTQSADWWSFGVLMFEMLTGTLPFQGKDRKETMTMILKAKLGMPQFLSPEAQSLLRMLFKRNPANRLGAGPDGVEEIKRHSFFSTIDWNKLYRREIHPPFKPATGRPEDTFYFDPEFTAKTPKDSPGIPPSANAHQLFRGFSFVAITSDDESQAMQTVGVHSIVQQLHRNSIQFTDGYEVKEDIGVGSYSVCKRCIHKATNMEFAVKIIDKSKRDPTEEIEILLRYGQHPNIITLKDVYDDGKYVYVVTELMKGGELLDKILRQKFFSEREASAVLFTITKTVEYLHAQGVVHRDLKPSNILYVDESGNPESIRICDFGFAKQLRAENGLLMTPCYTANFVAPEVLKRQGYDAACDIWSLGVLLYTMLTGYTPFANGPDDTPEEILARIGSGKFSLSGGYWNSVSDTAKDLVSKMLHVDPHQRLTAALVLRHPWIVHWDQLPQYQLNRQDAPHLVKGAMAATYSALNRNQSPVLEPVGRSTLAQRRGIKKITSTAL
Sequence of AURORA-B (Q96GD4 whole entry): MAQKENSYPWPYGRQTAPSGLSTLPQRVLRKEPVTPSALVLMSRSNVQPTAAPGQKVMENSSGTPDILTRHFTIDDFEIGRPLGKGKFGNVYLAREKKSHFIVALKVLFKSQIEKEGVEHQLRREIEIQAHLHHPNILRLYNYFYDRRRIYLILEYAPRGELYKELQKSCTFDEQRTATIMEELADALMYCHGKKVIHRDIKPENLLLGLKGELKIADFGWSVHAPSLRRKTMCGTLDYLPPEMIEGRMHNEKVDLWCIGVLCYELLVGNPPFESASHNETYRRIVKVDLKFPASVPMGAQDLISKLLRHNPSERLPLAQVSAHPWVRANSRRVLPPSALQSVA
Sequence of JAK2 (O60674 whole entry): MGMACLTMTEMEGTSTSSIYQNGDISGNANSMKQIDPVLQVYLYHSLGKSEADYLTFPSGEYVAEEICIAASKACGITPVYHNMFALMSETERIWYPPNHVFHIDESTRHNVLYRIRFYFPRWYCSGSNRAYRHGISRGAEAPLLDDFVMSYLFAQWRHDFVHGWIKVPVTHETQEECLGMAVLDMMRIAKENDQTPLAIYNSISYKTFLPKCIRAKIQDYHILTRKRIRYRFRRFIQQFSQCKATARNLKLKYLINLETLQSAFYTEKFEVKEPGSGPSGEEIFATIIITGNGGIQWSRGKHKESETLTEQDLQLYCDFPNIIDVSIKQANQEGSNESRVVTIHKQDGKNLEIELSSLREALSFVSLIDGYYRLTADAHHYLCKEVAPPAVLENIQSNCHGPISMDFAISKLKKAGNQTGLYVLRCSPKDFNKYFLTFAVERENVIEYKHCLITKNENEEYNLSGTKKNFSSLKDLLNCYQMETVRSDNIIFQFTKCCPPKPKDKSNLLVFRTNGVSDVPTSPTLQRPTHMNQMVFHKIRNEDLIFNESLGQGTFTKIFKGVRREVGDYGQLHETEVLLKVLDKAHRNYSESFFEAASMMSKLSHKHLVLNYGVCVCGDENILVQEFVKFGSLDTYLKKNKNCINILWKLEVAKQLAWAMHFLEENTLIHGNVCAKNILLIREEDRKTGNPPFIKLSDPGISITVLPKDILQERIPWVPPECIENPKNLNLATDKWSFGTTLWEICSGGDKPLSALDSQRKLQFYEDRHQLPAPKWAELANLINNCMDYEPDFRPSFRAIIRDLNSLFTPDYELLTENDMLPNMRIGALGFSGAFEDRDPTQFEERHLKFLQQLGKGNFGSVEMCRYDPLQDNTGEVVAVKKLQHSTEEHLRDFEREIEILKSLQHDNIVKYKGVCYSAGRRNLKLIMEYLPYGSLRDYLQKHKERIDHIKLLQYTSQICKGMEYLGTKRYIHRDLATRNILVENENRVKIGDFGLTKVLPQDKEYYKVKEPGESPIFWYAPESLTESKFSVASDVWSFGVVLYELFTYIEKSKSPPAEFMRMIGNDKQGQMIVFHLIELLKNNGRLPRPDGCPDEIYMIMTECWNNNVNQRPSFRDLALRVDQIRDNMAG
Sequence of TRKB (Q16620 32-822): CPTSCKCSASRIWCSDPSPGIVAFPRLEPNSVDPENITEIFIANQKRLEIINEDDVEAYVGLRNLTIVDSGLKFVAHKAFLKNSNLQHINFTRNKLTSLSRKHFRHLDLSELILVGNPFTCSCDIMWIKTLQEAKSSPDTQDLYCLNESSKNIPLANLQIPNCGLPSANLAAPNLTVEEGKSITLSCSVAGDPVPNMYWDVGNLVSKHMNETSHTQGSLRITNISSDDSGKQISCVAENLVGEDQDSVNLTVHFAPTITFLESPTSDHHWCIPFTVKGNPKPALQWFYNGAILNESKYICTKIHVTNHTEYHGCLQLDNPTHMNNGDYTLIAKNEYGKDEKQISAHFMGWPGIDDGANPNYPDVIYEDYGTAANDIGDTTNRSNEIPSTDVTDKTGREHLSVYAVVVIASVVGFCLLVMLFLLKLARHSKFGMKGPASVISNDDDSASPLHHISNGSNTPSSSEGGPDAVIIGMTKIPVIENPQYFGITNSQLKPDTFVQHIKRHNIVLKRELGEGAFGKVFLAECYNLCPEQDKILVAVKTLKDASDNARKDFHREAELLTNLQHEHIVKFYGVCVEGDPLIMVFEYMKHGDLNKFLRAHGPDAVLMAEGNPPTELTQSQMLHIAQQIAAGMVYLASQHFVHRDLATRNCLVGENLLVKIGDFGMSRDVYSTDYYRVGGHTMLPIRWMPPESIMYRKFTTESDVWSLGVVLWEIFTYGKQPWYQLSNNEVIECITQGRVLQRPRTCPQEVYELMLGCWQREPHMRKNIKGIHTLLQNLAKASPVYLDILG
Sequence of ERBB4 (Q15303 26-1308): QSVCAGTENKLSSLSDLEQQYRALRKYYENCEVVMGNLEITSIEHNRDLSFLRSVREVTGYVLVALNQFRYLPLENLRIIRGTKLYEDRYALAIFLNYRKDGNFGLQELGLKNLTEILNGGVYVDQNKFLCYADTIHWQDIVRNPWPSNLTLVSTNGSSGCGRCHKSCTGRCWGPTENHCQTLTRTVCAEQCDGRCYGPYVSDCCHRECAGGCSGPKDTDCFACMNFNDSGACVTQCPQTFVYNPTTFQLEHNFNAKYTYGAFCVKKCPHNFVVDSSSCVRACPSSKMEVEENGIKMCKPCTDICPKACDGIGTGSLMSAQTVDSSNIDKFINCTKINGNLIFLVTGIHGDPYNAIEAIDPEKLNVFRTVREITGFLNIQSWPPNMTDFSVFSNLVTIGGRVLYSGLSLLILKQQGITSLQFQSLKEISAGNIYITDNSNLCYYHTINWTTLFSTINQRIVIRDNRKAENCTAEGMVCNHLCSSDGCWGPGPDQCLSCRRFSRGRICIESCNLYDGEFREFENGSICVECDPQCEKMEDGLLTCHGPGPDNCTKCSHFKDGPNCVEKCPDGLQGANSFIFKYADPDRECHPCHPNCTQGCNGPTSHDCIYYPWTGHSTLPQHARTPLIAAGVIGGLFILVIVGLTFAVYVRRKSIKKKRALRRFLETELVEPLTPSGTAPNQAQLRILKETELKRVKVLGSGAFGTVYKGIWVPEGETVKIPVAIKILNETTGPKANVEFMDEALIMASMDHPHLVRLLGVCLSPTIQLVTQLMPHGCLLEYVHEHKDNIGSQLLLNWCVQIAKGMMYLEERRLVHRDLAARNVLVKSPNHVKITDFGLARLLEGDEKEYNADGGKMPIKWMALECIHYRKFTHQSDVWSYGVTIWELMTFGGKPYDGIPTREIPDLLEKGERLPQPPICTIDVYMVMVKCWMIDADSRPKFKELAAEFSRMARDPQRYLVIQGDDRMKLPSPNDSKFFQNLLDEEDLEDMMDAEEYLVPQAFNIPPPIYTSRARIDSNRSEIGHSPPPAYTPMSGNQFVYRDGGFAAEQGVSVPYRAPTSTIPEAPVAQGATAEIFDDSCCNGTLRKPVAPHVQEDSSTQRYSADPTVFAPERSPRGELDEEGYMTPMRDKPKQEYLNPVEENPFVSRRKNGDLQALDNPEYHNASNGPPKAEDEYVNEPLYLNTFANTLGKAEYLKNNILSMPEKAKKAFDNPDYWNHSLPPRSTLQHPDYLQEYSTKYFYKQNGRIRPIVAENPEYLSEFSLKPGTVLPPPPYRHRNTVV

As to `COc1cc(-c2cc(-c3ccc(N4CCNCC4)cc3)cnc2C)cc(OC)c1OC` [Compound 10, 1-(4-(6-methyl-5-(3,4,5-trimethoxyphenyl)pyridin-3-yl)phenyl)piperazine], the inhibition at 0.1 µM in experiment [1] amounted to 3%; in experiment [2] it was 4%; in experiment [3], 1%; in experiment [4] it was 5%; in experiment [5], 2%; in experiment [6] it was 8%. Besides, the inhibition at 0.1 µM in experiment [7] was 5%. In addition, the inhibition at 1 µM was determined as 3% in experiment [1]; 21% in experiment [2]; 1% in experiment [3]; 8% in experiment [4]; 3% in experiment [5]; 36% in experiment [6]. For the same molecule, the inhibition at 1 µM in experiment [7] amounted to 4%.

For `COc1cc(-c2cc(-c3ccc(N4CCNCC4)cc3)cnc2N)cc(OC)c1OC` [Compound 15, 5-(4-(piperazin-1-yl)phenyl)-3-(3,4,5-trimethoxyphenyl)pyridin-2-amine], the inhibition at 0.1 µM worked out at 2% in experiment [1]; 9% in experiment [2]; 0% in experiment [3]; 7% in experiment [4]; 3% in experiment [5]; 30% in experiment [6]. For the same molecule, the inhibition at 0.1 µM in experiment [7] was 0%. Besides, the inhibition at 1 µM in experiment [1] was found to be 3%; in experiment [2] it was 29%; in experiment [3], 4%; in experiment [4] it was 45%; in experiment [5] it was 8%; in experiment [6] it was 76%. In addition, the inhibition at 1 µM in experiment [7] was 0%.
